System: TAFI deficient plasma
Assay: CLSM thrombelastography with tPA, TAFI deficient plasma
Type: biochemical, human
Settings: 100 μM CORM-2, tPA 100 IU/mL, median, n=8
Procedure: Pooled normal plasma (George King Bio-Medical, Overland Park, Kans.) anticoagulated with sodium citrate was utilized for experimentation. […] Factor XIII (FXIII) deficient plasma anticoagulated with sodium citrate was also obtained from the same vendor.
Plasma Sample Composition. The final volume for all subsequently described plasma sample mixtures was 359.4 μL. Sample composition consisted of 316 μL of plasma; 10 μL of tissue factor (0.1% final concentration in 0.9% NaCl; Diagnostica Stago, Asnieres, France), 3.6 μL of dimethyl sulfoxide (DMSO) or DMSO with CORM-2 (Sigma-Aldrich, St. Louis, Mo.) or DMSO with inactivated CORM-2 (iCORM-2), 10 μL of tissue-type plasminogen activator (tPA, 580 U/μg, Genentech, Inc., San Francisco, Calif.) diluted with 10 mM potassium phosphate buffer (pH 7.4) for a final activity of 100 IU/mL, and 20 μL of 200 mM CaCl2. […] This concentration of CORM-2 was chosen because the concentration of CO released would be expected to be in the mid to lower ranges used in previously reported ex vivo, in vitro, and cell-based experiments (Motterlini et al. 2002; Megias et al. 2007; Chlopicki et al. 2006; Dong et al. 2008). […] (Motterlini et al. 2005). While CORM-2 decays slowly in DMSO, DMSO was added to the dry compound just prior to placement into the plasma mixture. The specific series of experiments are subsequently presented.
Assessment of the Effects of CORM-2 on CLSM Parameters in FXIII, PAI-1, TAFI and α2-antiplasmin Deficient Plasmas. These experiments were performed to elucidate the roles played by antifibrinolytic enzymes during CORM-2 mediated modulation of fibrinolysis. Samples of the various deficient plasmas were exposed to 0 or 100 μM of CORM-2 (n=8 per condition). Samples underwent CLSM analyses as subsequently described.
Clot Lifespan Model Analyses. As described in Example 1, plasma sample mixtures were placed in a disposable cup in a computer-controlled THROMBELASTOGRAPH® hemostasis system (Model 5000, Haemoscope Corp., Niles, Ill.), with addition of CaCl2 as the last step to initiate clotting. Data were collected until clot lysis time occurred. […] As this model involves complete fibrinolysis, TTG is equivalent to ACL, so ACL was not presented as it provides no additional information.
Statistical Analyses. Data are presented as median (1st, 3rd quartiles). […] Nonlinear and linear analyses and curve fitting of the various CORM-2 concentrations effects on CLSM variables were performed with commercially available software (SigmaPlot 11.0, Systat Software, Inc., San Jose, Calif.). Analyses of the effects of CORM-2 and iCORM-2 on CLSM variables in normal plasma were conducted with Kruskal-Wallis one way analysis of variance on ranks, whereas Mann-Whitney rank sum tests were used to assess the effects of CORM-2 on CLSM variables in the various immunodepleted/congenitally deficient plasma types (SigmaStat 3.1, Systat Software, Inc., San Jose, Calif.). Graphical representation of the data was generated with commercially available software (SigmaPlot 11.0, Systat Software, Inc., San Jose, Calif.; CorelDRAW 12.0, Corel Corporation, Ottawa, Ontario, Canada; Origin 7.5, OriginLab Corp., Northampton, Mass.). A P value of <0.05 was considered significant.

[C-]#[O+].[C-]#[O+].[C-]#[O+].[C-]#[O+].[C-]#[O+].[C-]#[O+].[Cl][Ru][Cl].[Cl][Ru][Cl] [CORM-2, tricarbonyldichlororuthenium (II) dimer]
CGT (clot growth time): 410 s
CLS (clot lifespan): 370 s
CLT (clot lysis time): 932 s
MRL (maximum rate of lysis): −1.4 -dynes/cm^2/sec
MRTG (maximum rate of thrombus generation): 6.1 dynes/cm^2/sec
TMRL (time to maximum rate of lysis): 612 s
TMRTG (time to maximum rate of thrombus generation): 175 s
TTG (total thrombus generation): 142 dynes/cm^2
